Laboratory results published in ChEMBL document CHEMBL4680119, “Battle tactics against MMP-9; discovery of novel non-hydroxamate MMP-9 inhibitors endowed with PI3K/AKT signaling attenuation and caspase 3/7 activation via Ugi bis-amide synthesis” (Eur J Med Chem, 2020).

Assays:
[1] = system: WI-38; assay: Cytotoxicity against human WI-38 cells assessed as reduction in cell viability by MTT assay; assay type: cell-based; details: for IC50: Homo sapiens, WI-38; for EC100: human, wi-38
[2] = in vitro; details: human, WI38 cells and HepG2 cells
Description: Selectivity index, ratio of IC50 for human WI38 cells to IC50 for human HepG2 cells

[3] = system: HepG2; assay: Anticancer activity against human HepG2 cells assessed as reduction in cell viability by MTT assay; assay type: functional, cell-based
[4] = Anticancer activity against […] cells assessed as reduction in cell viability by MTT assay; assay type: functional, cell-based; details: Mus musculus
[5] = system: MCF7; assay: cells; details: Homo sapiens
Description: Anticancer activity against human MCF7 cells assessed as reduction in cell viability by MTT assay

SMILES	IC50 [1]	EC100 [1]	selectivity ratio [2]	IC50 [3]	IC50 [4]	IC50 [5]
O=C(Nc1ccc([N+](=O)[O-])cc1)C(c1ccc([N+](=O)[O-])cc1)N(C(=O)c1ccc([N+](=O)[O-])cc1)c1ccccc1 (stereo not given)	143 nM	82.4 nM	0.768	187 nM	189 nM	203 nM
NCC(=O)N(c1ccccc1)C(C(=O)Nc1ccc([N+](=O)[O-])cc1)c1ccccc1 (stereo not given)	218 nM	84.9 nM	1.44	152 nM	168 nM	165 nM
O=C(Nc1ccc([N+](=O)[O-])cc1)C(c1ccccc1[N+](=O)[O-])N(C(=O)c1ccccc1[N+](=O)[O-])c1ccccc1 (stereo not given)	360 nM	198.9 nM	0.828	435 nM	208 nM	184 nM
O=C(Nc1ccc([N+](=O)[O-])cc1)C(c1ccccc1)N(C(=O)C(Cl)(Cl)Cl)c1ccccc1 (stereo not given)	4560 nM	1912 nM	148	30.9 nM	22.8 nM	11 nM
CC(=O)N(c1ccccc1)C(C(=O)Nc1ccc([N+](=O)[O-])cc1)c1ccccc1 (stereo not given)	509 nM	301 nM	2.83	180 nM	287 nM	309 nM
O=CN(c1ccccc1)C(C(=O)Nc1ccc([N+](=O)[O-])cc1)c1ccccc1 (stereo not given)	543 nM	161.5 nM	5.09	107 nM	94.1 nM	55.8 nM
Cc1ccc(N(C(=O)c2ccc(Cl)cc2)C(C(=O)Nc2ccc([N+](=O)[O-])cc2)c2ccccc2)cc1 (stereo not given)	42.7 nM	18.25 nM	0.842	50.7 nM	54.2 nM	64 nM
O=C(Nc1ccc([N+](=O)[O-])cc1)C(c1ccccc1)N(C(=O)c1ccccc1[N+](=O)[O-])c1cccc(Br)c1 (stereo not given)	199 nM	89.7 nM	1.44	138 nM	156 nM	168 nM
O=C(Nc1ccc([N+](=O)[O-])cc1)C(c1ccccc1)N(C(=O)c1ccc(C(F)(F)F)cc1)c1ccccc1 (stereo not given)	46 nM	26.9 nM	5.75	8 nM	11.6 nM	12 nM
O=C(Nc1ccc([N+](=O)[O-])cc1)C(c1ccccc1)N(C(=O)c1ccccc1[N+](=O)[O-])c1ccc(I)cc1 (stereo not given)	318 nM	188.3 nM	1.77	180 nM	182 nM	181 nM
O=C(Nc1ccc([N+](=O)[O-])cc1)C(c1ccccc1)N(C(=O)Cc1ccccc1)c1ccccc1 (stereo not given)	819 nM	290.7 nM	46	17.8 nM	17.6 nM	26.4 nM
O=C(Nc1ccc([N+](=O)[O-])cc1)C(c1ccccc1)N(C(=O)C(F)(F)F)c1ccccc1 (stereo not given)	1460 nM	540.3 nM	70.3	20.8 nM	23.9 nM	28.4 nM
Cc1ccc(N(C(=O)c2ccc([N+](=O)[O-])cc2)C(C(=O)Nc2ccc([N+](=O)[O-])cc2)c2ccccc2)cc1 (stereo not given)	182 nM	113.6 nM	2.44	74.6 nM	92.3 nM	104 nM
O=C(Nc1ccc([N+](=O)[O-])cc1)C(c1ccccc1)N(C(=O)/C=C/c1ccccc1)c1ccccc1 (stereo not given)	29.1 nM	4.8 nM	1.49	19.5 nM	13 nM	12.9 nM
O=C(Nc1ccc([N+](=O)[O-])cc1)C(c1ccc(Br)cc1)N(C(=O)c1ccccc1[N+](=O)[O-])c1ccccc1 (stereo not given)	233 nM	12.7 nM	3.06	76.1 nM	82.1 nM	84.7 nM
